Reference: US8263606B2 (Xenon Pharmaceuticals Inc., priority 2008, dated 2012)

Columns and labels:
sodium channel = assay: Guanidine influx assay (14C-guanidine radiotracer flux, in vitro); type: cell-based, human or rat; conditions: guanidine influx assay using a known cell line that expresses a sodium channel; activity level class
Outline: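 Aconitine holds channels open while 14C-guanidine enters human or rat sodium-channel-expressing cells in choline-substituted low-sodium saline, with test agent present at ambient temperature. Retained tracer is scintillation-counted and IC50 fitted by a four-parameter logistic model.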

CYP3A4 = CYP3A4 (Homo sapiens, UniProt P08684); assay: Cytochrome P450 (CYP450) Inhibition Assay, CYP3A4 (Vivid fluorescence, BOMCC substrate); conditions: human, P450 Baculosomes (recombinant CYP3A4), probe BOMCC (Vivid substrate)
Sequence of CYP3A4 (P08684 whole entry): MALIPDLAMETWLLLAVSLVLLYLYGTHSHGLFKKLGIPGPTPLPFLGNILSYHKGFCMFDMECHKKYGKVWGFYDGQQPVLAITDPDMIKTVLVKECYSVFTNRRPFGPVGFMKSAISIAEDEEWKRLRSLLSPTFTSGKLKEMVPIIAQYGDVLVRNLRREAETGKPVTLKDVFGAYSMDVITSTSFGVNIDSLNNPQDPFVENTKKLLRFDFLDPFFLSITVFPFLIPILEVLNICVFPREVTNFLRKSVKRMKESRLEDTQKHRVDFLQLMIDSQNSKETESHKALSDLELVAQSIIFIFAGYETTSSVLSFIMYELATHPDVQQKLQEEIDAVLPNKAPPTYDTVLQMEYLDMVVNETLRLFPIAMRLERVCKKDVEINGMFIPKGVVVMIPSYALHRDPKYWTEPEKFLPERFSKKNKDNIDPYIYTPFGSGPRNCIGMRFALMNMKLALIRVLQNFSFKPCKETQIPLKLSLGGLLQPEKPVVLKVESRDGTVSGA

SMILES	IC50 (sodium channel)	inhibition at 10 µM (CYP3A4)	melting point
COc1cc2c(cc1F)C1(CO2)C(=O)N(Cc2ccc(C(F)(F)F)o2)c2ccccc21 (stereo not drawn) [Example 9.30, 5-fluoro-6-methoxy-1′-{[5-(trifluoromethyl)furan-2-yl]methyl}spiro[1-benzofuran-3,3′-indol]-2′(1′H)-one]	100 to 1000 nM	> 50%	45 to 47 °C
O=C1N(Cc2cccnc2)c2ccccc2C12COc1cc(F)c(F)cc12 (stereo not drawn) [Example 9.31, 5,6-difluoro-1′-(pyridin-3-ylmethyl)spiro[1-benzofuran-3,3′-indol]-2′(1′H)-one]	1000 to 10000 nM	> 50%	175 to 177 °C
COc1ccc2c(c1)OCC21C(=O)N(Cc2ccccn2)c2ccccc21 (stereo not drawn) [Example 9.33, 6-methoxy-1′-(pyridin-2-ylmethyl)-2H-spiro[benzofuran-3,3′-indolin]-2′-one]	1 to 100 nM	< 50%	122 to 123 °C
O=C1N(Cc2ccc(OCc3ccccc3)cc2)c2ccccc2[C@]12COc1cc3c(cc12)OCCO3 [Example 9.39, (8S)-1′-[4-(Benzyloxy)Benzyl]-2,3-Dihydrospiro[Furo[2,3-g][1,4]Benzodioxine-8,3′-Indol]-2′(1′H)-One]	100 to 1000 nM	< 50%	151 to 153 °C
CC(C)(C)OC(=O)Nc1ccc(CN2C(=O)C3(COc4cc5c(cc43)OCCO5)c3ccccc32)cn1 (stereo not drawn) [Example 9.40, tert-butyl {5-[(2′-oxo-2,3-dihydrospiro[furo[2,3-g][1,4]benzodioxine-8,3′-indol]-1′(2′H)-yl)methyl]pyridin-2-yl}carbamate]	100 to 1000 nM	< 50%	238 to 239 °C
Cc1noc2cc3c(cc12)C1(CO3)C(=O)N(Cc2ccccc2C(F)(F)F)c2ccccc21 (stereo not drawn) [Example 9.41, 3-methyl-1′-[2-(trifluoromethyl)benzyl]spiro[furo[3,2-f][1,2]benzisoxazole-5,3′-indol]-2′(1′H)-one]	100 to 1000 nM	> 50%	192 to 194 °C
Cc1noc2cc3c(cc12)C1(CO3)C(=O)N(Cc2ncccc2C(F)(F)F)c2ccccc21 (stereo not drawn) [Example 9.42, 3-methyl-1′-{[3-(trifluoromethyl)pyridin-2-yl]methyl}spiro[furo[3,2-f][1,2]benzisoxazole-5,3′-indol]-2′(1′H)-one]	100 to 1000 nM	> 50%	221 to 222 °C

More lines, now with the values ahead:

IC50 (sodium channel)	inhibition at 10 µM (CYP3A4)	melting point	SMILES
100 to 1000 nM	< 50%	165 to 168 °C	Cc1cc2c(cc1C)C1(CO2)C(=O)N(Cc2ccccn2)c2ccccc21 (stereo not drawn) [Example 9.28, 5,6-dimethyl-1′-(pyridin-2-ylmethyl)spiro[1-benzofuran-3,3′-indol]-2′(1′H)-one]
1 to 100 nM	> 50%	164 to 165 °C	COc1ccc2c(c1)OCC21C(=O)N(Cc2cccnc2)c2ccccc21 (stereo not drawn) [Example 9.34, 6-methoxy-1′-(pyridin-3-ylmethyl)spiro[1-benzofuran-3,3′-indol]-2′(1′H)-one]
100 to 1000 nM	< 50%	87 to 89 °C	O=C1N(Cc2ccc(OCc3ccccc3)cc2)c2ccccc2C12COc1cc3c(cc12)OCCO3 (stereo not drawn) [Example 9.37, 1′-[4-(benzyloxy)benzyl]-2,3-dihydrospiro[furo[2,3-g][1,4]benzodioxine-8,3′-indol]-2′(1′H)-one]
100 to 1000 nM	< 50%	169 to 170 °C	O=C1N(Cc2ccc(OCc3ccccc3)cc2)c2ccccc2C12COc1cc3c(cc12)CCO3 (stereo not drawn) [Example 9.38, 1′-[4-(benzyloxy)benzyl]-5,6-dihydrospiro[benzo[1,2-b:5,4-b′]difuran-3,3′-indol]-2′(1′H)-one]
1 to 100 nM	< 50%	37 to 38 °C	O=C1N(CCCOCc2ccccc2)c2ccccc2C12COc1cc3c(cc12)OCCO3 (stereo not drawn) [Example 9.43, 1′-[3-(benzyloxy)propyl]-2,3-dihydrospiro[furo[2,3-g][1,4]-benzodioxine-8,3′-indol]-2′(1′H)-one]
